Entries after “also recorded” stand apart in the source; their conditions may differ. Like-named read-outs stand apart in the source and are kept apart here.
Tests used:
GiPCR signaling [1] = test: CDS (CellKey) functional evaluation of Gi protein-mediated receptor signaling in primary mouse osteoblasts; format: cell-based, mice
Gi1, Gi2, Gi3 proteins = test: Immunoprecipitation/Western blot: phosphorylation of Gi proteins in MC3T3-E1 cells; format: cell-based; settings: MC3T3-E1 treated with rOPN in presence of kinase inhibitor
Description: Given that the defective GiPCR signaling associated with idiopathic scoliosis has causatively been related to increased phosphorylation of Gi proteins (Moreau et al., 2004), it was of interest to examined whether OPN influences the phosphorylation status of Gi proteins. Accordingly, MC3T3-E1 cells were treated with rOPN, then cell lysates were immunoprecipitated with antibodies against Gi1, Gi2 or Gi3 protein isoforms, and the phosphorylation level was examined by Western blot using anti-phospho serine/threonine or anti-tyrosine antibodies. […] However, band density was higher in OPN-treated cells.
To support the involvement of α5β1 integrin in this process, cells were pre-treated with antibody against α5β1 integrin prior to rOPN treatment.
Cell extracts prepared from MC3T3-E1 that had been treated with rOPN in the presence or absence of an inhibitor specific for each kinase were subjected to immunoprecipitation and Western blot analysis. […] However, both serine and tyrosine phosphorylation were attenuated by inhibitors of FAK (FAK inhibitor-14), Scr (PP2), CaMKII (KN93), PI3K (wortmannin-data not shown), MEK (PD98059), ERK1/2 (FR180204), JNK (SP60125) and P38 (SB203580).

GsPCR signaling = test: CDS response to GsPCR stimulation (isoproterenol, desmopressin) in MC3T3-E1 cells; format: cell-based; settings: rOPN in combination with Src inhibitor; isoproterenol, similar with desmopressin
Text: Taken into account these considerations and having observed that genetic deletion of OPN inversely influenced response to Gi and Gs stimulation (FIG. 1), it was of interest to examine the effect of OPN on the functional and phosphorylation status of Gs protein and on its interaction with receptors. For this purpose, cells were subjected to isoproterenol and desmopressin in the presence of rOPN or PBS. As expected, response to isoproterenol was higher in rOPN than in PBS-treated cells.
Assuming that inhibition of Gi protein and phosphorylation of Gs protein are responsible for the increased GsPCR signaling associated with rOPN, the next experiments aimed to determine the contribution of each parameter. For this purpose, cells were treated with PTX to mimic disruption action of rOPN and compared to cells treated with rOPN alone or in combination with Src inhibitor (PP2) to prevent tyrosine phosphorylation. […] This modest difference was abolished by Src inhibitor (PP2). Similar observations were noted when cells were stimulated with desmopressin.

GiPCR signaling [2] = test: CDS integrated response to GiPCR ligands in MC3T3-E1 osteoblastic cell line; format: cell-based; settings: for response in the presence of rOPN after siRNA transfection: MC3T3-E1, compared with untreated cells
Description: The functional evaluation of Gi, Gs and Gq proteins was assessed by CDS assays using osteoblasts cells derived from C57Bl/6j WT and C57Bl/6j OPN^−/− mice (bipedal and quadrupedal) using CellKey™ apparatus, as previously described (Akoume et al., 2010, and WO 2010/040234 to Moreau et al.).
MC3T3-E1 cells were used to check the effect of the knockdown of OPN and its receptors. MC3T3-E1 osteoblasts cells were transiently transfected in serum-free medium, using Lipofectamine™ RNAiMAX reagent (Invitrogen) according to the manufacturer's instructions and functional experiments were performed 48 h post transfection. The sequence of RNA oligonucleotides used for the knockdown of different genes are, ssp1 (encodes OPN) (CCACAGCCACAAGCAGUCCAGAUUA (SEQ ID NO: 9)), integrin β1 (CCUAAGUCAGCAGUAGGAACAUUAU (SEQ ID NO: 10)), integrin β3 (CCUCCAGCUCAUUGUUGAUGCUUAU (SEQ ID NO: 11)), integrin α5 (CCGAGUACCUGAUCAACCUGGUUCA (SEQ ID NO: 12)), integrin α8 (GAGAUGAAACUGAAUUCCGAGAUAA (SEQ ID NO: 13)), integrin αv (GACUGUUGAGUAUGCUCCAUGUAGA (SEQ ID NO: 14 and CD44 (GAACAAGGAGUCGUCAGAAACUCCA (SEQ ID NO: 15)). Two other siRNAs against integrin α5 were tested (UCCACCAUGUCUAUGAGCUCAUCAA (SEQ ID NO:16) and UCAGGAGCAGAUUGCAGAAUCUUAU (SEQ ID NO:17)).
To further investigate the role of OPN in Gi protein-mediated receptor signaling, several lines of experiments were performed using MC3T3-E1 osteoblastic cell line. Since these cells express OPN, was first examined whether depletion of OPN by siRNA influences the capacity of GiPCR ligands to induce cell signaling as measured by CDS in MC3T3-E1 cells. […] Similar results were obtained when cells were stimulated with oxymethazolin. […] To confirm this hypothesis, cells were treated with exogenous recombinant OPN (rOPN) prior to DAMGO and oxymethazolin stimulation.

[3] = molecular target: RGD-dependent integrins expressed in osteoblasts; test: cell-based or functional assay
[4] = osteoblasts from WT and OPN-/- mice, increasing agonist concentration

Compound | level of serine phosphorylation in the Gi protein precipitates (Gi1, Gi2, Gi3 proteins) | tyrosine phosphorylation levels in the Gi protein precipitates (Gi1, Gi2, Gi3 proteins) | further results
C[C@@H](NC(=O)[C@@H](N)Cc1ccc(O)cc1)C(=O)NCC(=O)N(C)[C@@H](Cc1ccccc1)C(=O)NCCO [DAMGO] |  |  | response to GiPCR agonist (GiPCR signaling [1]; [4]): concentration-dependent increase of response
Nc1cc(N)c(N)cc1N [FAK inhibitor-14] | attenuated | attenuated | 
Nc1[nH]nc2nnc(-c3c(-c4ccccc4)nn4ccccc34)cc12 [FR180204] | attenuated | attenuated | 
COc1ccc2c(c1)c(C1=C(c3c[nH]c4ccccc34)C(=O)NC1=O)cn2CCCN(C)C [Gö6983] | attenuated | without effect | 
COc1ccc(S(=O)(=O)N(CCO)c2ccccc2CN(C)C/C=C/c2ccc(Cl)cc2)cc1 [KN93] | attenuated | attenuated | 
COc1cccc(-c2cc(=O)c3ccccc3o2)c1N [PD98059] | attenuated | attenuated | 
CC(C)(C)n1nc(-c2ccc(Cl)cc2)c2c(N)ncnc21 [PP2] | attenuated | attenuated | difference in response between rOPN-treated and PTX-treated cells (GsPCR signaling): abolished
C[S+]([O-])c1ccc(-c2nc(-c3ccncc3)c(-c3ccc(F)cc3)[nH]2)cc1 (centres unmarked) [SB203580] | attenuated | attenuated | 
O=C1c2ccccc2-c2n[nH]c3cccc1c23 [SP60125] | attenuated | attenuated | 
Cc1cc(C(C)(C)C)c(O)c(C)c1CC1=NCCN1 [oxymethazolin] |  |  | response to GiPCR agonist (GiPCR signaling [1]; [4]): concentration-dependent increase of response
CD44 siRNA: siRNA for knockdown of CD44: GAACAAGGAGUCGUCAGAAACUCCA (guide GAACAAGGAGUCGUCAGAAACUCCA; listed as RNA, chemistry not given here) |  |  | effect on the inhibitory effect of rOPN on response to DAMGO and oxymethazolin (GiPCR signaling [2]; MC3T3-E1 cells, rOPN present): did not prevent; also recorded: further aggravated the defect
OPN siRNA: siRNA for knockdown of ssp1 (encodes OPN): CCACAGCCACAAGCAGUCCAGAUUA |  |  | integrated response to DAMGO and oxymethazolin (GiPCR signaling [2]; MC3T3-E1 cells, endogenous OPN depleted or blocked, no exogenous rOPN): significantly greater
RGD peptide |  |  | RGD concentration reversing the inhibitory effect of OPN on response to DAMGO and oxymethazolin (CDS) [3]: > 10 µg/mL
apelin |  |  | response to GiPCR agonist (GiPCR signaling [1]): concentration-dependent increase of response
hyaluronic acid [HA] |  |  | sensitivity of GiPCR signaling to CD44 inhibition (GiPCR signaling [1]; CD44-/- osteoblasts): does not show any sensitivity; GiPCR signaling defects (GiPCR signaling [1]; wild type osteoblasts, compared to the control): exacerbated; GiPCR signaling defect / inhibitory effect of OPN when CD44 is inhibited (GiPCR signaling [1]; wild type osteoblasts, in presence of rOPN): intensified; also recorded: exacerbate the signaling defect
pertussis toxin [PTX] |  |  | cellular responses to each of the four tested agonists after PTX pre-treatment (GiPCR signaling [1]; osteoblasts from WT and OPN-/- mice, DAMGO, somatostatin, oxymethazolin, apelin): largely reduced
α5 siRNA: siRNA against integrin α5: CCGAGUACCUGAUCAACCUGGUUCA; two others (SEQ ID NO:16, 17) also tested (guide CCGAGUACCUGAUCAACCUGGUUCA; listed as RNA, chemistry not given here) |  |  | response in the presence of rOPN after siRNA transfection (GiPCR signaling [2]): high response
β1 siRNA: siRNA against integrin β1: CCUAAGUCAGCAGUAGGAACAUUAU (guide CCUAAGUCAGCAGUAGGAACAUUAU; listed as RNA, chemistry not given here) |  |  | response in the presence of rOPN after siRNA transfection (GiPCR signaling [2]): high response

Reference: patent US20160368992A1, “A METHOD OF INCREASING GIPCR SIGNALIZATION IN THE CELLS OF A SCOLIOTIC SUBJECT” (CHU SAINTE-JUSTINE, priority 2013, published 2016)
